In one data set the test system is host cells. Briefly: NEI-associated late endosomes and nuclear transfer of EV-derived components after importazole treatment. It is filed as cell-based. An excerpt: Referring to FIGS. 1A, 1B and 1C, illustrate data showing the localization and tripartite structure of a VOR complex. […] Typically, EVs are transported to late endosomes after their endocytosis, wherein the EVs facilitate intercellular communication in diverse cellular processes.

For another data set, the system named is Cancer SW480 cells. The data set can be described thus: MTS cell viability, SW480 cells. It counts as cell-based. As to conditions: 10 μM, 24, 48 and 72 hours. The protocol:
(§1) Referring to FIG. 11, illustrates that triazole analogues were not toxic for cells. Cancer SW480 cells (left panel) and primary mesenchymal stromal cells (right panel) were incubated with DMSO solvent alone (control), 10 μM ICZ, compound 5, compound 3 or ketoconazole (KCZ) for 24, 48 and 72 hours as indicated. At the end of each time point, MTS tetrazolium compound (3-(4,5-dimethylthiazol-2-yl)-5-(3-carboxymethoxyphenyl)-2-(4-sulfophenyl)-2H-tetrazolium) was added for 1 hour to evaluate the amounts of viable cells. The absorbance value was measured at 490 nm. The mean±S.D. are shown (n=6). **, p<0.01.

The target in data set [1] is T1, tripartite VAP-A, ORP3 and Rab7 (VOR) protein complex (Homo sapiens, UniProt Q9H4L5).
T1 construct: solubilized and subjected to immunoisolation (IS) using anti-ORP3 Ab followed by Protein G-coupled magnetic beads; endogenous in cells; host or cells: SW480 cells
T1 sequence (Q9H4L5 1-887): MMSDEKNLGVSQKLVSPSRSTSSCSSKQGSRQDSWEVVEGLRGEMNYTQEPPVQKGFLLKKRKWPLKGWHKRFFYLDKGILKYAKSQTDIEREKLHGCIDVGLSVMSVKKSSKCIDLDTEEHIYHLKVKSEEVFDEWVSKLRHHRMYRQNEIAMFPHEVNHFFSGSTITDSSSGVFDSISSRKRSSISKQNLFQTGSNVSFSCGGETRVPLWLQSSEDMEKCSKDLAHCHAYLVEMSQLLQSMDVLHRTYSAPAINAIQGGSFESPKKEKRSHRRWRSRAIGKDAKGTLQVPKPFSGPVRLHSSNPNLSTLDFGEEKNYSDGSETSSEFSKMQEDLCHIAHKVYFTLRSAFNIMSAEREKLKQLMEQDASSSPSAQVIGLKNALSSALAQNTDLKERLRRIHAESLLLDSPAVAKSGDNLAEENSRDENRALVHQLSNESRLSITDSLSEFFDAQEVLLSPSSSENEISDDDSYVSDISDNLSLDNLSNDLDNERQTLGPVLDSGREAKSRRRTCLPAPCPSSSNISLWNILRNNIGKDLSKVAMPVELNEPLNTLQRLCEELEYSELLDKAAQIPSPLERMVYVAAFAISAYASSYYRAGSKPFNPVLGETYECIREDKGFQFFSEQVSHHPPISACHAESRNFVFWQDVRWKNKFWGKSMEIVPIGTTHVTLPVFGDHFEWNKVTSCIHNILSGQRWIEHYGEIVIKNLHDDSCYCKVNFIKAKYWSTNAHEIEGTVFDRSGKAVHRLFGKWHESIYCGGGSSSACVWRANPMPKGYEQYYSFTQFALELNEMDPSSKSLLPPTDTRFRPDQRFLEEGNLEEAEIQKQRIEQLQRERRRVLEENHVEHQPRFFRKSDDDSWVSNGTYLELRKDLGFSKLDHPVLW
T1 sequence (Q9P0L0 1-249 partner): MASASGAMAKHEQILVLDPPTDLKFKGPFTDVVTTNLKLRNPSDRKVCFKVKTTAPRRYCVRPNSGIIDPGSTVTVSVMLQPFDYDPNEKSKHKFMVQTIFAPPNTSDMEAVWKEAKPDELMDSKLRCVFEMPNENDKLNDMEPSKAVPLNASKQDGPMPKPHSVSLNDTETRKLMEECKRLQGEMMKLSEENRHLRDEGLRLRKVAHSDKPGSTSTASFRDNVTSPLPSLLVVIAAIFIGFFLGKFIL
The data set can be described thus: VOR complex integrity in detergent SW480 cell lysates (anti-ORP3 immunoisolation, Rab7 co-immunoisolation). It is filed as biochemical. As to conditions: 10 μM, 30 minutes on ice. The protocol: Detergent SW480 cell lysates were incubated with DMSO solvent alone (control), 10 μM ICZ, triazole compound 5, compound 3 or ketoconazole for 30 minutes on ice, and then subjected to immunoisolation (IS) using anti-ORP3 Ab followed by Protein G-coupled magnetic beads. The input (1/50, for Rab7 only) and entire bound fractions were probed by immunoblotting for ORP3, VAP-A and Rab7. The Rab7/VAP-A ratios were quantified (n=3). The mean±S.D. are shown. P values are indicated. […] Referring to FIGS. 12A, 12B, 12C and 12D illustrate the effects of various triazole compounds on the VOR complex integrity. Detergent SW480 cell lysates were incubated with DMSO solvent alone (control), 2.5 μM (FIG. 12A), 5 μM (FIG. 12B), 7.5 μM (FIG. 12C) or 10 μM (FIG. 12D) ICZ and triazole compounds for 30 minutes on ice and then subjected to immunoisolation (IS) using anti-ORP3 Ab followed by Protein G-coupled magnetic beads. The entire bound fractions were probed by immunoblotting for ORP3, VAP-A and Rab7 (data not shown). The percent inhibition of Rab7 expression were quantified and compared to the control sample (dashed line).

For data set [2], the system named is SW480 cells. The data set can be described thus: EV-induced pro-metastatic morphological transformation. It counts as cell-based. The note with it: 10 μM, 10 minutes pre-treatment, EVs 1×10^9 particles/ml, 5 hours. The protocol: Referring to FIG. 9, illustrates that the triazole compound 5 inhibited EV-induced pro-metastatic morphological transformation. SW480 cells were pre-treated with DMSO solvent alone (control), 10 μM ICZ, triazole compound 5 or compound 3 for 10 minutes prior to incubation without or with EVs (1×10^9 particles/ml) derived from metastatic SW620 cells for 5 hours. Cell morphology was analyzed by confocal laser scanning microscopy upon CD9 immunolabelling (data not shown). Bar graphs show the percentage of cells harboring a rounded (left panel) or blebbed (right panel) morphology upon exposure to EVs. The mean±S.D. are shown. At least 50 cells were evaluated per condition and independent experiment (n=6).

Data set [3] has as its system SW480 cells. Briefly: Entry of Rab7+ late endosomes in SUN2+ NEI, confocal microscopy. It is filed as cell-based. As to conditions: 10 μM, 5 hours. The protocol: Referring to FIG. 8, illustrates that the triazole compound 5 inhibited the entry of Rab7^+ late endosomes in NEI. SW480 cells were incubated with DMSO (control), 10 μM ICZ, triazole compound 5, triazole compound 3 or ketoconazole (KCZ) for 5 hours prior to double immunolabelling for Rab7 and nuclear membrane protein SUN2 and the staining with cholesterol-binding compound filipin. Cells were analyzed by confocal laser scanning microscopy (left panel). Arrows indicate SUN2^+ NEI and arrowheads point to Rab7 and filipin-labelled cholesterol therein. […] The mean±S.D. are shown. P values are indicated. N.s., not significant. Scale bars, 5 μm.

Data set [4] has as its target T1, tripartite VAP-A, ORP3 and Rab7 (VOR) protein complex. Briefly: VOR complex integrity in whole SW480 cells (anti-ORP3 immunoisolation, Rab7 co-immunoisolation). It is filed as cell-based. The note with it: 10 μM, 5 hours. The protocol: SW480 cells were incubated with DMSO solvent alone (control), 10 μM ICZ, triazole compound 5, compound 3 or ketoconazole for 5 hours, solubilized and subjected to immunoisolation (IS) using anti-ORP3 Ab followed by Protein G-coupled magnetic beads. The input (1/50, for Rab7 only) and entire bound fractions were probed by immunoblotting for ORP3, VAP-A and Rab7. The Rab7/VAP-A ratios were quantified (n=3). The mean±S.D. are shown. P values are indicated.

Data set [5] concerns HIV-Gag-iGFP infection of HeLa cells. The data set can be described thus: HIV-1 productive infection (HIV-Gag-iGFP expression). It is filed as cell-based. The note with it: 10 μM pretreatment, infection 6 hours, then 24 hours in presence of drugs. The protocol:
Referring to FIG. 20A-C, illustrates the impact of drugs on productive infection. HeLa cells pretreated with drugs as above before HIV-Gag-iGFP infection for 6 hours, washed, and incubated for 24 hours in the presence of drugs. Samples were processed either for immunocytochemistry or flow cytometry analyses. DMSO was used as solvent vehicle. […] Dashed line represents DMSO-treated, noninfected cells as a negative control. […] The percentage of GFP^+ cells as assessed by flow cytometry is plotted (C). Means±S.D. with individual values for each experiment are shown. Cy, cytoplasm; Pm, plasma membrane; n.s., not significant; ***, p<0.001.

Data set [6] concerns HIV-1 integrase in HeLa cells. Briefly: Transport of HIV-1 integrase into the nucleoplasmic reticulum (IN-2 immunolabelling). It counts as cell-based. The note with it: 10 μM, 30 minutes pretreatment, HIV-Gag-iGFP infection 1 hour. The protocol:
(A) HeLa cells were pretreated with 10 μM of drugs as indicated for 30 minutes before HIV-Gag-iGFP infection for 1 hour in the presence of drugs. As controls, DMSO was used (DMSO, HIV-infected cells; control, uninfected cells). Cells were fixed and processed for double immunolabelling for VAP-A and HIV IN (IN-2). […] (B) HeLa cells expressing Rab7-RFP were treated as in panel A, and then double immunolabelled for SUN2 and IN-2. Scale bars, 10 (A) and 5 (B) μm.
Referring to FIG. 19A, B illustrates the quantification of IN-2 immunoreactivity in SUN2^+ NEI (A, 50 NEIs were assessed per experiment, n=3, individual values of each experiment is indicated) and the IN-2 nucleoplasm/cytoplasm ratio per cell (B, n=150 cells from three independent experiments) on HeLa cells treated with drugs as indicated (see FIG. 18B). Means±S.D. with individual values for each experiment (A) are shown. N.s., not significant; ***, p<0.001.

Data set [7] deals with primary mesenchymal stromal cells. Briefly: MTS cell viability, primary mesenchymal stromal cells. It is filed as cell-based. The note with it: 10 μM, 24, 48 and 72 hours. The protocol:
as §1

Data set [8] has as its system SW480 cells. Briefly: Nuclear transfer of EV cargo (CD9-GFP). It counts as cell-based. The note with it: 10 μM, 10 minutes pre-treatment, 5-hour incubation with EVs. The protocol:
SW480 cells were pre-treated for 10 minutes with DMSO (control), 10 μM ICZ, triazole compound 5, triazole compound 3 or ketoconazole (KCZ) prior to 5-hour incubation with melanoma cell-derived CD9-green fluorescent protein (GFP)^+ EVs in the absence or presence of drugs. Recipient cells were then fixed and immunolabelled for the nuclear membrane protein SUN2. The amounts of EV-derived CD9-GFP in the nuclear compartments were analyzed by confocal laser scanning microscopy and quantified using Fiji software. Nuclear CD9-GFP was evaluated from 50 cells per condition and a representative experiment with mean±S.D. are shown. P values are indicated. N.s., not significant.

Data set [9] concerns SW480 cells. The data set can be described thus: Scratch wound healing assay, EV-induced migration. It is filed as cell-based. The note with it: 10 μM, EVs from SW620 cells 7.5×10^8 particles/ml, 5 hours. The protocol: Referring to FIG. 16, illustrates images of the scratch wound healing assay of SW480 cells treated with 10 μM drugs (ICZ, compound 5) without or with EVs (7.5×10^8 particles/ml) derived from SW620 cells for 5 hours (upper panels). The mean±S.E.M. (n=2 independent experiments) is presented (lower panel).

For the compound `CC(Nc1nc(N2CCCC2)nc2ccccc12)c1ccccc1` (centres unmarked) [importazole], in the data set with host cells, the NEI-associated late endosomes entry was “lack of the NEI-associated late endosomes” and the “transfer of EV-derived components into the nucleoplasm of host cells” value was “inhibition of transfer”.
For the compound `CCC(C)n1ncn(-c2ccc(Cl)cc2)c1=O` (centres unmarked) [compound 5, 2-(butan-2-yl)-4-(4-chlorophenyl)-2,4-dihydro-3H-1,2,4-triazol-3-one], the “toxicity for cells (MTS, viable cells)” value (in the data set on Cancer SW480 cells; in data set [7]) was “not toxic” throughout. Also, the figures for the “co-immunoisolation of Rab7 with ORP3 (Rab7/VAP-A ratio)” value in data set [1] and in data set [4] were “inhibits the co-immunoisolation of Rab7” and “inhibit the co-immunoisolation of Rab7”, respectively. Also, the “morphological transformation (rounded or blebbed) induced by EVs from metastatic SW620 cells” value with SW480 cells [2] is “inhibited the morphological transformation”. In the data set with SW480 cells [3], the “Rab7 and cholesterol in SUN2+ NEI” value is “absence of Rab7 and cholesterol”. Moreover, the “entry of Rab7+ late endosomes in NEI” value with SW480 cells [3] is given as “inhibited”. Besides, in data set [5], the “Gag-iGFP expression (productive infection)” value is on record as “reduction in Gag-iGFP expression”. Further, in data set [6], the “transport of HIV-1 integrase into the nucleoplasmic reticulum (IN-2 immunoreactivity in NEI)” value is “inhibit the transport of HIV-1 integrase into the nucleoplasmic reticulum”. Further, the “nuclear transfer of EV cargo (EV-derived CD9-GFP in nuclear compartments)” value with SW480 cells [8] is recorded as “inhibited the nuclear transfer of EV cargo”. Also, the “migration of SW480 cells induced by EVs” value in the data set with SW480 cells [9] was “inhibit the migration”.
Take `CC(=O)N1CCN(c2ccc(OCC3COC(Cn4ccnc4)(c4ccc(Cl)cc4Cl)O3)cc2)CC1` (centres unmarked) [ketoconazole, reference compound]: the “co-immunoisolation of Rab7 with ORP3 (Rab7/VAP-A ratio)” value in data set [1] and in data set [4] was “do not” each time.
Regarding `O=c1[nH]ncn1-c1ccc(Cl)cc1` [compound 3, 4-(4-Chlorophenyl)-2,4-dihydro-3H-1,2,4-triazol-3-one], the “toxicity for cells (MTS, viable cells)” value (in the data set with Cancer SW480 cells; in data set [7]) was “not toxic” each time. For the same compound, the “co-immunoisolation of Rab7 with ORP3 (Rab7/VAP-A ratio)” value in data set [1] and in data set [4] was “do not” throughout. Besides, in data set [6], the “transport of HIV-1 integrase into the nucleoplasmic reticulum (IN-2 immunoreactivity in NEI)” value was “detected in NEI”.

The values above are taken from patent US20230321082A1, “USE OF TRIAZOLE ANALOGUES FOR INHIBITION OF A TRIPARTITE VOR PROTEIN COMPLEX IN MULTICELLULAR ORGANISMS” (TECHNISCHE UNIVERSITÄT DRESDEN, priority 2020, published 2023).
